Data reported in article PMC9230136 (Pharmaceutics, 2022).

Tests used:
[1] = test system: PBL stimulated with PHA; experiment: Cytotoxicity in human PBLs stimulated with PHA; assay type: cell-based; details: 72 h, read-out: IC50 PBLPHA
Excerpt: (§1) Human PBLs were obtained from healthy donors by separation on a Lymphoprep^TM (Serumwerk Bernburg AG) gradient and were used for the evaluation of the cytotoxic potential of compounds under study in normal human cells. Buffy coats were obtained from the Blood Transfusion Service, Azienda Ospedaliera of Padova and provided at this institution for research purposes without identifier. The samples were not obtained specifically for this study, and for this reason ethical approval was not required. Informed consent was obtained from blood donors according to Italian law no. 219 (21 October 2005). Data were treated by the Blood Transfusion Service according to Italian law on personal data management “Codice in materia di protezione dati personali” (Testo Unico D.L. Giugno 30, 2003 196).
(§2) After extensive washing with saline solution (BioConcept, Hank’s Buffered Saline Solution), quiescent PBLs were resuspended (1.0 × 10^6 cells/mL) in RPMI-1640 medium supplemented with 10% fetal bovine serum. Cytotoxicity evaluations were conducted also in cultures of proliferating PBLs, stimulated with […] PHA (Irvine Scientific). Both resting and proliferating lymphocytes were seeded in 96-well plates and maintained overnight at 37 °C in a humidified 5% CO2 incubator. Serial (5-fold) dilutions of the tested compounds were added, and viability was determined 72 h later by the resazurin viability assay as described above.

[2] = test system: Jurkat; experiment: Antiproliferative assay (resazurin, 72 h); assay type: cell-based, human; details: Table 2; mean ± SE; 72 h
How it was run: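 Compounds dissolved in DMSO as 10 mM stocks were applied to seeded Jurkat cells using 5-fold serial dilutions from 10 μM, with each condition run in triplicate. Following 72 h incubation, 10 μL of 100 μg/mL resazurin was added for 3–4 h, and fluorescence was measured at 535 nm excitation and 600 nm emission.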

[3] = test system: HeLa cells; experiment: Scratch-migration assay; assay type: cell-based, human; details: 0.625–10 nM; 24 and 48 h
Method: HeLa cells were plated at 100,000 cells per well in a 6-well plate and incubated at 37 °C for 24 h. The day after seeding, cells were nearly confluent, so the sheet of cells was gently wounded through the horizontal and vertical axes using a micropipette tip. Cells were rinsed twice with PBS solution to remove cell debris; next, they were treated with different sublethal concentrations of compound 8q. At different time points, four images per experimental condition were captured using a stereomicroscope at 10X magnification. The distance between the two edges of the wound area was quantified with ImageJ software.

[4] = test system: HeLa cells; experiment: Immunofluorescence labeling of microtubules; assay type: cell-based, human; details: 10 nM, 24 h
Method: HeLa cells were seeded at 15,000 cells/well in a NuncTM Lab-Tek 8-well Chamber SlideTM System (Thermo Fisher Scientific) and incubated under cell culture conditions for 24 h. The cells were treated with various concentrations of compounds or solvent (DMSO as control) and incubated for another 24 h.
After the pharmacological treatment, cells were rinsed with PBS and fixed with 200 μL of 4% paraformaldehyde in PBS for 15 min at room temperature. Cells were then washed twice with PBS 1X before proceeding with permeabilization and protein saturation using a blocking buffer containing 3% bovine serum albumin and 0.1% Triton X-100. Cells were maintained in the blocking buffer for 30 min at room temperature before performing immunostaining of microtubules. Cells were incubated with a murine monoclonal anti-β tubulin antibody (Sigma-Aldrich, Milano, Italy) overnight at 4 °C.
After three washes with PBS 1X, cells were incubated for 1 h at room temperature in the dark with a secondary antibody conjugated to Alexa FluorTM 488 (Invitrogen, Thermo Fisher Scientific, Waltham, MA, USA)). […]
Alterations in the microtubule cytoskeleton were documented by fluorescence microscopy using a Zeiss LSM 800 with Airyscan Confocal Spectral microscope (100× magnification) (New York, NY, USA). […]

[5] = test system: quiescent PBLs; experiment: Cytotoxicity in human PBLs, resting; assay type: cell-based; details: PBL not stimulated with PHA; 72 h; read-out: IC50 PBLresting
Excerpt: as §1, §2

`Cc1cc(Nc2ccc(F)cc2)n2nc(NCCCc3ccccc3)nc2n1` [Compound 8q] was tested, and the IC50 [1] was over 10 µM, the IC50 [2] was 0.15 ± 0.02 µM and the “cell migration / wound closure” value [3] was “significantly arrested the movement of cells, preventing wound closure”. For the same molecule, the microtubule network organization [4] was “microtubules were disorganized, and the cells developed a spherical morphology” and the IC50 [5] was over 10 µM.
